In brackets after ≈: the same amount, converted by molar mass. Where two headings read alike, the source gives them in different places.
Experiments:
[1] = test system: Str. pyogenes; assay: MIC, antibiotic dilution technique (agar); type: cell-based, S. pyogenes; details: Streptococcus pyogenes
Source text: (§1) Bacteria. The organisms, preponderantly of recent clinical origin, were obtained from numerous sources of broad geographical distribution. Obligate anaerobes were maintained in Egg Meat Medium (Difco); Mycobacterium was stored on Lowenstein Medium (Jensen Modification; Difco). The techniques of storing all other organisms have been described previously [Leitner et al., BL-S640, A Cephalosporin with a Broad Spectrum of Antibacterial Activity: Properties in vitro, Antimicrob. Agents Chemother., 7, 298-305 (1975)].
(§2) Antibiotic spectrum. The growth-inhibitory activity of the compounds was determined by the antibiotic dilution technique. Procedures were as follows:
(§3) Aerobic organisms (excluding Mycobacterium). Except for Haemophilus and Neisseria, the assay was performed in Mueller-Hinton Medium (Difco). For fastidious organisms, i.e., Streptococcus, Listeria, Pasteurella, Bordetella and Vibrio, the medium was supplemented with 4% defibrinated sheep blood. The antibiotic susceptibility of Haemophilus and Neisseria was determined in GC Medium Base (BBL) supplemented with 1% Hemoglobin (BBL) and 1% Isovitalex (BBL).
(§4) Overnight broth cultures of an exponentially growing culture (Neisseria) served as the source of inoculum. A volume of approximately 0.003 ml. of the undiluted or diluted culture was applied to the surface of the antibiotic-containing agar plates with the inoculator of Steers et al., An Inocula Replicating Apparatus for Routine Testing of Bacterial Susceptibility to Antibiotics, Antibiot. Chemother., 9, 307-311, (1959). Cultures of Neisseria, Streptococcus pneumoniae, S. viridans and S. pyogenes were used without dilution; those of all other organisms were diluted 100-fold. The inoculum contained about 10^3 viable cells for Neisseria, 10^5 for S. pneumoniae and S. pyogenes, 10^6 for S. viridans and 10^4 for all other species.

[2] = test system: E. Coli; assay: MIC, antibiotic dilution technique (agar); type: cell-based; details: Escherichia coli
Source text: as §1, §2, §3, §4

[3] = test system: Pr. rettgeri; assay: MIC, antibiotic dilution technique (agar); type: cell-based; details: Providencia rettgeri
Source text: as §1, §2, §3, §4

[4] = test system: K. pneumoniae; assay: MIC, antibiotic dilution technique (agar); type: cell-based; details: Klebsiella pneumoniae, read-out: MIC
Source text: as §1, §2, §3, §4

[5] = test system: S. aureus Meth-Res.; assay: MIC, antibiotic dilution technique (agar); type: cell-based; details: Staphylococcus aureus
Source text: as §1, §2, §3, §4

[6] = test system: S. aureus; assay: MIC, antibiotic dilution technique (agar); type: cell-based; details: Staphylococcus aureus
Source text: as §1, §2, §3, §4

[7] = test system: Pr. vulgaris; assay: MIC, antibiotic dilution technique (agar); type: cell-based; details: Proteus vulgaris
Source text: as §1, §2, §3, §4

[8] = test system: Pr. morganii; assay: MIC, antibiotic dilution technique (agar); type: cell-based; details: Morganella morganii, read-out: MIC
Source text: as §1, §2, §3, §4

[9] = test system: Ps. aeruginosa; assay: MIC, antibiotic dilution technique (agar); type: cell-based; details: Pseudomonas aeruginosa, read-out: MIC
Source text: as §1, §2, §3, §4

[10] = test system: Pr. mirabilis; assay: MIC, antibiotic dilution technique (agar); type: cell-based; details: Proteus mirabilis
Source text: as §1, §2, §3, §4

[11] = test system: Str. pneumoniae; assay: MIC, antibiotic dilution technique (agar); type: cell-based; details: Streptococcus pneumoniae
Source text: as §1, §2, §3, §4

[12] = test system: Ser. marcescens; assay: MIC, antibiotic dilution technique (agar); type: cell-based; details: Serratia marcescens
Source text: as §1, §2, §3, §4

[13] = test system: Ent. cloacae; assay: MIC, antibiotic dilution technique (agar); type: cell-based; details: Enterobacter cloacae, read-out: MIC
Source text: as §1, §2, §3, §4

[14] = test system: Str. faecalis; assay: MIC, antibiotic dilution technique (agar); type: cell-based; details: Enterococcus faecalis
Source text: as §1, §2, §3, §4

[15] = test system: S. aureus Pen-Res.; assay: MIC, antibiotic dilution technique (agar); type: cell-based; details: Staphylococcus aureus, read-out: MIC
Source text: as §1, §2, §3, §4

[16] = test system: E. Coli; assay: MIC, antibiotic dilution technique (agar), Table 4; type: cell-based; details: Escherichia coli
Source text: as §1, §2, §3, §4

[17] = test system: S. pneumoniae; assay: MIC, antibiotic dilution technique (agar), Table 4; type: cell-based; details: Streptococcus pneumoniae; Table 4, 7 strains, geometric mean where applicable
Source text: as §1, §2, §3, §4

[18] = test system: S. faecalis; assay: MIC, antibiotic dilution technique (agar), Table 4; type: cell-based; details: Enterococcus faecalis; Table 4, 6 strains, geometric mean where applicable
Source text: as §1, §2, §3, §4

[19] = test system: S. pyogenes; assay: MIC, antibiotic dilution technique (agar), Table 4; type: cell-based; details: Streptococcus pyogenes; Table 4, 6 strains, geometric mean where applicable
Source text: as §1, §2, §3, §4

[20] = test system: Streptococcus sp. (β-hemolytic); assay: MIC, antibiotic dilution technique (agar), Table 4; type: cell-based; details: Table 4, 6 strains, geometric mean where applicable
Source text: as §1, §2, §3, §4

[21] = test system: S. marcescens; assay: MIC, antibiotic dilution technique (agar), Table 4; type: cell-based
Source text: as §1, §2, §3, §4

[22] = test system: K. pneumoniae; assay: MIC, antibiotic dilution technique (agar), Table 4; type: cell-based; details: Klebsiella pneumoniae, Table 4, K. pneumoniae, read-out: MIC
Source text: as §1, §2, §3, §4

[23] = test system: E. cloacae; assay: MIC, antibiotic dilution technique (agar), Table 4; type: cell-based; details: Enterobacter cloacae; Table 4, 2 strains, geometric mean where applicable
Source text: as §1, §2, §3, §4

[24] = test system: S. aureus (lacking penase); assay: MIC, antibiotic dilution technique (agar), Table 4; type: cell-based; details: Staphylococcus aureus; Table 4, 6 strains, geometric mean where applicable
Source text: as §1, §2, §3, §4

[25] = test system: p. vulgaris; assay: MIC, antibiotic dilution technique (agar), Table 4; type: cell-based; details: Proteus vulgaris; Table 4, 2 strains, geometric mean where applicable
Source text: as §1, §2, §3, §4

[26] = test system: P. rettgeri; assay: MIC, antibiotic dilution technique (agar), Table 4; type: cell-based; details: Providencia rettgeri
Source text: as §1, §2, §3, §4

[27] = test system: P. mirabilis; assay: MIC, antibiotic dilution technique (agar), Table 4; type: cell-based; details: Proteus mirabilis, Table 4, P. mirabilis, geometric mean where applicable, read-out: MIC
Source text: as §1, §2, §3, §4

[28] = test system: S. viridans; assay: MIC, antibiotic dilution technique (agar), Table 4; type: cell-based; details: Streptococcus viridans
Source text: as §1, §2, §3, §4

SMILES: COCCOCOC(=O)[C@@H]1N2C(=O)[C@@H](N3C(=O)[C@@H](c4ccccc4)NC3(C)C)[C@H]2SC1(C)C [RN-1492, Methoxyethoxymethyl Ester of Hetacillin]
- MIC ([1]; Table 1, Str. pyogenes): 0.008 mg/L (≈ 0.0168 µM)
- MIC ([2]; Table 1, E. Coli, first line): 2 mg/L (≈ 4.19 µM)
- MIC ([2]; Table 1, E. Coli, second line): 63 mg/L (≈ 132 µM)
- MIC ([3]; Table 1, Pr. rettgeri): 16 mg/L (≈ 33.5 µM)
- MIC ([4]; Table 1, K. pneumoniae, first line): 63 mg/L (≈ 132 µM)
- MIC ([4]; Table 1, K. pneumoniae, second line): 32 mg/L (≈ 67 µM)
- MIC ([5]; Table 1, S. aureus Meth-Res.): 63 mg/L (≈ 132 µM)
- MIC ([6]; Table 1, S. aureus): 0.06 mg/L (≈ 0.126 µM)
- MIC ([6]; Table 1, S. aureus + 50% serum): 0.13 mg/L
- MIC ([7]; Table 1, Pr. vulgaris): 0.25 mg/L (≈ 0.523 µM)
- MIC ([8]; Table 1, Pr. morganni): 32 mg/L (≈ 67 µM)
- MIC ([9]; Table 1, Ps. aeruginosa, first line): 63 mg/L (≈ 132 µM)
- MIC ([9]; Table 1, Ps. aeruginosa, second line): 125 mg/L (≈ 262 µM)
- MIC ([10]; Table 1, Pr. mirabilis): 0.25 mg/L (≈ 0.523 µM)
- MIC ([11]; Table 1, Str. pneumoniae): 0.004 mg/L (≈ 0.00838 µM)
- MIC ([12]; Table 1, Ser. marcescens): 32 mg/L (≈ 67 µM)
- MIC ([13]; Table 1, Ent. cloacae, first line): 63 mg/L (≈ 132 µM)
- MIC ([13]; Table 1, Ent. cloacae, second line): 63 mg/L (≈ 132 µM)
- MIC ([14]; Table 1, Str. faecalis): 0.5 mg/L (≈ 1.05 µM)
- MIC ([15]; Table 1, S. aureus Pen-Res.): > 125 mg/L
- MIC ([16]; 1 strain (first line)): 2 mg/L (≈ 4.19 µM)
- MIC ([16]; 1 strain (fourth line)): > 125 mg/L
- MIC ([16]; 1 strain (third line)): 63 mg/L (≈ 132 µM)
- MIC ([16]; 3 strains (second line), geometric mean where applicable): 5 mg/L (≈ 10.5 µM)
- MIC [17]: 0.032 mg/L (≈ 0.067 µM)
- MIC [18]: 2 mg/L (≈ 4.19 µM)
- MIC [19]: 0.027 mg/L (≈ 0.0565 µM)
- MIC [20]: 0.13 mg/L (≈ 0.272 µM)
- MIC ([21]; 1 strain (second line)): > 125 mg/L
- MIC ([21]; Serratia marcescens, 1 strain (first line), read-out: MIC): > 125 mg/L
- MIC ([22]; 1 strain (first line)): 63 mg/L (≈ 132 µM)
- MIC ([22]; 1 strain (second line)): > 125 mg/L
- MIC [23]: > 125 mg/L
- MIC [24]: 0.18 mg/L (≈ 0.377 µM)
- MIC [25]: 0.5 mg/L (≈ 1.05 µM)
- MIC ([26]; Table 4, P. retgeri, 2 strains (third line), geometric mean where applicable): 63 mg/L (≈ 132 µM)
- MIC ([26]; Table 4, P. rettgeri, 1 strain (first line)): 0.25 mg/L (≈ 0.523 µM)
- MIC ([26]; Table 4, P. rettgeri, 1 strain (second line)): 16 mg/L (≈ 33.5 µM)
- MIC ([27]; 2 strains): > 125 mg/L
- MIC ([27]; 4 strains): 4 mg/L (≈ 8.38 µM)
- MIC ([28]; Table 4, S. viridans, 1 strain (second line)): 0.25 mg/L (≈ 0.523 µM)
- MIC ([28]; Table 4, S. viridans, 3 strains, geometric mean where applicable): 0.05 mg/L (≈ 0.105 µM)
- MIC ([28]; Table 4, s. viridans, 1 strain (third line)): 0.5 mg/L (≈ 1.05 µM)

SMILES: COCCOCOC(=O)[C@@H]1N2C(=O)[C@@H](N3C(=O)[C@@H](c4ccc(O)cc4)NC3(C)C)[C@H]2SC1(C)C [RN-1493, Methoxyethoxymethyl Ester of Heta-Amoxicillin]
- MIC ([1]; Table 2, Str. pyogenes): 0.008 mg/L (≈ 0.0162 µM)
- MIC ([2]; Table 2, E. coli, first line): 2 mg/L (≈ 4.05 µM)
- MIC ([2]; Table 2, E. coli, second line): 63 mg/L (≈ 128 µM)
- MIC ([3]; Table 2, Pr. rettgeri): 32 mg/L (≈ 64.8 µM)
- MIC ([4]; Table 2, K. pneumoniae, first line): 63 mg/L (≈ 128 µM)
- MIC ([4]; Table 2, K. pneumoniae, second line): 63 mg/L (≈ 128 µM)
- MIC ([5]; Table 2, S. aureus Meth-Res.): 63 mg/L (≈ 128 µM)
- MIC ([6]; Table 2, S. aureus): 0.06 mg/L (≈ 0.122 µM)
- MIC ([6]; Table 2, S. aureus + 50% serum): 0.25 mg/L
- MIC ([7]; Table 2, Pr. vulgaris): 0.5 mg/L (≈ 1.01 µM)
- MIC ([8]; Table 2, Pr. morganii): 16 mg/L (≈ 32.4 µM)
- MIC ([9]; Table 2, Ps. aeruginosa, first line): 63 mg/L (≈ 128 µM)
- MIC ([9]; Table 2, Ps. aeruginosa, second line): 63 mg/L (≈ 128 µM)
- MIC ([10]; Table 2, Pr. mirabilis): 0.5 mg/L (≈ 1.01 µM)
- MIC ([11]; Table 2, Str. pneumoniae): 0.004 mg/L (≈ 0.0081 µM)
- MIC ([12]; Table 2, Ser. marcescens): 32 mg/L (≈ 64.8 µM)
- MIC ([13]; Table 2, Ent. cloacae, first line): 63 mg/L (≈ 128 µM)
- MIC ([13]; Table 2, Ent. cloacae, second line): 63 mg/L (≈ 128 µM)
- MIC ([14]; Table 2, Str. faecalis): 0.5 mg/L (≈ 1.01 µM)
- MIC ([15]; Table 2, S. aureus Pen-Res.): 125 mg/L (≈ 253 µM)

Source: US4217274A, “Methoxyethoxymethyl esters of penicillins” (Bristol-Myers Company, priority 1978, dated 1980)
